Test results taken from article PMC10981309, “Dual-targeting tigecycline nanoparticles for treating intracranial infections caused by multidrug-resistant Acinetobacter baumannii” (Journal of Nanobiotechnology, 2024).
≈ marks a conversion by molar mass, not a printed value.

How the values were obtained:
Hemolysis assay = assay: Hemolysis assay; parameters: species or system rats; settings: rat; 2% erythrocyte suspension, 37 °C, three hours, relative to positive control (water); read-out: hemolysis rate
Procedure: The hemolytic activity of Aβ11/T80@CSs was assessed using erythrocytes from healthy rats. Blood samples were collected, and red blood cells were isolated through centrifugation, followed by suspension in normal saline to create a 2% erythrocyte solution. Two milliliters of this erythrocyte suspension were mixed with free TGC, CSs, or Aβ11/T80@CSs and incubated at 37 °C for three hours. Post-incubation, the samples were centrifuged, and the absorbance of the supernatant was measured using spectrophotometry at 570 nm. Purified water and normal saline served as positive and negative controls, respectively. The percentage of hemolysis was calculated using the following formula: Hemolysis%=Asample-Anegative/Apositive-Anegativ×100%

[1] = In vitro drug release, dialysis method in PBS pH 7.4; format: physicochemical; settings: PBS pH 7.4, 37 °C
Procedure: An in vitro drug release study was conducted employing the dialysis method, with phosphate-buffered saline (PBS, pH = 7.4) as the release medium. For this study, 2 mL aliquots of free Tigecycline (TGC), CSs, or Aβ11/T80@CSs (each containing 1 mg of TGC) were sealed in dialysis bags with a molecular weight cutoff of 3.5 kDa. These bags were then immersed in 30 mL of PBS and gently agitated at 37 °C. At predetermined time intervals, 1.0 mL of PBS was sampled from outside each dialysis bag for HPLC analysis, and an equivalent volume of fresh PBS was replenished to maintain a constant volume in the release medium.

[2] = Histological analysis (H&E) of heart, liver, spleen, lungs and kidneys; format: in vivo, rats; settings: compared to normal control group
Source text: To further investigate the biosafety of the various formulations in vivo, blood samples were collected post-administration for biochemical analysis. After euthanizing the rats, their heart, liver, spleen, lung, and kidney tissues were harvested. These tissues underwent hematoxylin and eosin (H&E) staining and were subsequently imaged using a pathology slide scanner.

bEnd.3 cells = assay: Cell cytotoxicity, MTT assay; format: cell-based; settings: 24-h incubation, across a range of TGC concentrations
bEnd.3 cells monolayer = assay: Transmembrane transport assay, in vitro BBB model; format: in vitro ADME; settings: bEnd.3 Transwell monolayer, apical to basolateral, TGC by HPLC
Procedure: An in vitro blood–brain barrier (BBB) model using bEnd.3 cells was developed to assess nanoparticle penetration. 2.0 × 10^5 cells were cultured in a Transwell chamber, achieving an intercellular compactness verified at 200 Ω·cm^2 transendothelial electrical resistance. […] Using Hank's Balanced Salt Solution, nanoparticles were added to the apical side and co-incubated. At intervals, 200 μL HBSS was sampled from the basolateral side for TGC concentration analysis via HPLC.

[3] = Pharmacokinetics after intravenous injection; format: in vivo; settings: female, Sprague-Dawley, rat, rats, i.v. 12.5 mg/kg TGC, plasma
Procedure: In the pharmacokinetic study, adult female Sprague–Dawley rats, weighing between 200 and 250 g, were used. Prior to the experiment, the animals were fasted overnight with free access to water. […] Each group received an intravenous administration of TGC at a dose of 12.5 mg/kg via the tail vein. Blood samples were collected at predetermined time points (0.25, 0.5, 1, 2, 4, 6, and 8 h), and then placed into 2 mL Eppendorf tubes. These samples were centrifuged at 10,000 rpm for 10 min at 4 °C to separate the plasma. A portion of the plasma was mixed with methanol in a 1:4 volume ratio and further centrifuged at 13,000 rpm for 10 min at 4 °C. The supernatant was collected for TGC concentration determination using HPLC. Pharmacokinetic parameters were subsequently calculated using the statistical analysis tool DAS2.

[4] = system: multidrug-resistant A. baumannii; assay: Minimum inhibitory concentration, microbroth dilution; format: cell-based; settings: Acinetobacter baumannii; 1 × 10^5 CFU/mL, 24 h, OD 600 nm
Procedure: Mid-log phase bacteria, diluted to 1 × 10^5 CFU/mL, were mixed with these compounds (0.125–16 μg/mL) and incubated in 96-well plates for 24 h, with bacterial density measured at 600 nm. In a rat model, MDR A. baumannii was injected intracisternally (20 μL, 1 × 10^8 CFU/mL) into the CSF. […] CSF was collected after 24 h and cultured, with colony counts noted after 24 h at 37 °C.

- time to complete release [1]: within three hours
- histopathology of heart, liver, spleen, lungs and kidneys [2]: no significant pathological alterations
- permeability / transport capacity across in vitro BBB model (bEnd.3 cells monolayer): lowest permeability
- Cmax [3]: 3700 ± 620 ng/mL
- Tmax [3]: 15 min
- clearance [3]: 20 mL/min/kg
- half-life [3]: 46.2 ± 14.4 min
- AUC(0-t) ([3]; 0-8 h): 8480 ± 2900 ng·h/mL
- MRT last ([3]; read-out: MRT(0-t)): 156 ± 9.6 min
- MIC [4]: 2 µg/mL (≈ 3.41 µM)
SMILES: CN(C)c1cc(NC(=O)CNC(C)(C)C)c(O)c2c1C[C@H]1C[C@H]3[C@H](N(C)C)C(O)=C(C(N)=O)C(=O)[C@@]3(O)C(O)=C1C2=O [Free-TGC, Tigecycline]
- hemolysis at 3 h (Hemolysis assay): < 5%
- cell survival rate (bEnd.3 cells): exceeded 80%
